Reference: the supplement of paper PMC10307832

Columns and labels:
Test in all cases: relative viability (nuclei count vs DMSO), 5 days (fraction); higher = more cells survive
Carfilzomib + Crizotinib = compound: CC(C)C[C@H](NC(=O)[C@H](CCc1ccccc1)NC(=O)CN1CCOCC1)C(=O)N[C@@H](Cc1ccccc1)C(=O)N[C@@H](CC(C)C)C(=O)[C@@]1(C)CO1 [Carfilzomib] + C[C@@H](Oc1cc(-c2cnn(C3CCNCC3)c2)cnc1N)c1c(Cl)ccc(F)c1Cl [Crizotinib] (partner 1 µM)
Summary of the method: (§1)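 Lung cancer cell lines were seeded in 1536-well plates and dosed by pin tool the next day, with either a single drug or a fixed anchor-drug dose combined with five library-drug doses (not always all listed) spaced in √10 steps. Five days later, one step fixed the cells and stained their nuclei (final 0.05% Triton X-100, 1% formaldehyde, 1 ug/ml Hoechst), and nuclei were counted on 4× images. Relative viability is the nuclei count in treated wells divided by the count in vehicle wells, and each value is the median of duplicate plates.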

Crizotinib + Bortezomib = compound: C[C@@H](Oc1cc(-c2cnn(C3CCNCC3)c2)cnc1N)c1c(Cl)ccc(F)c1Cl [Crizotinib] + CC(C)C[C@H](NC(=O)[C@H](Cc1ccccc1)NC(=O)c1cnccn1)B(O)O [Bortezomib] (partner 0.002 µM)
Summary of the method: as §1

Crizotinib + Tozasertib = compound: C[C@@H](Oc1cc(-c2cnn(C3CCNCC3)c2)cnc1N)c1c(Cl)ccc(F)c1Cl [Crizotinib] + Cc1cc(Nc2cc(N3CCN(C)CC3)nc(Sc3ccc(NC(=O)C4CC4)cc3)n2)n[nH]1 [Tozasertib] (partner 0.1 µM)
Summary of the method: as §1

Olaparib + Lapatinib = compound: O=C(c1cc(Cc2n[nH]c(=O)c3ccccc23)ccc1F)N1CCN(C(=O)C2CC2)CC1 [Olaparib] + CS(=O)(=O)CCNCc1ccc(-c2ccc3ncnc(Nc4ccc(OCc5cccc(F)c5)c(Cl)c4)c3c2)o1 [Lapatinib] (partner 2 µM)
Summary of the method: as §1

Cell Line | relative viability (Carfilzomib + Crizotinib; first compound 0.001 µM) | relative viability (Carfilzomib + Crizotinib; first compound 0.003162 µM) | relative viability (Carfilzomib + Crizotinib; first compound 0.01 µM) | relative viability (Carfilzomib + Crizotinib; first compound 0.03162 µM) | relative viability (Carfilzomib + Crizotinib; first compound 0.1 µM) | relative viability (Crizotinib + Bortezomib; first compound 0.01 µM) | relative viability (Crizotinib + Bortezomib; first compound 0.03162 µM) | relative viability (Crizotinib + Bortezomib; first compound 0.1 µM) | relative viability (Crizotinib + Bortezomib; first compound 0.3162 µM) | relative viability (Crizotinib + Bortezomib; first compound 1 µM) | relative viability (Crizotinib + Tozasertib; first compound 0.01 µM) | relative viability (Crizotinib + Tozasertib; first compound 0.03162 µM) | relative viability (Crizotinib + Tozasertib; first compound 0.1 µM) | relative viability (Crizotinib + Tozasertib; first compound 0.3162 µM) | relative viability (Crizotinib + Tozasertib; first compound 1 µM) | relative viability (Olaparib + Lapatinib; first compound 0.08 µM) | relative viability (Olaparib + Lapatinib; first compound 0.253 µM) | relative viability (Olaparib + Lapatinib; first compound 2.53 µM) | relative viability (Olaparib + Lapatinib; first compound 8 µM)
NCI-H2347 | 0.798 | 0.756 | 0.596 | 0.449 | 0.35 | 1.02 | 0.919 | 1.15 | 0.95 | 1.14 | 0.462 | 0.564 | 0.615 | 0.527 | 0.422 | 0.972 | 0.949 | 0.957 | 0.767
NCI-H2405 | 0.807 | 0.916 | 0.866 | 0.785 | 0.175 | 1 | 0.997 | 1.04 | 1.09 | – | 0.702 | 0.811 | 0.761 | 0.706 | 0.697 | 1.41 | 1.06 | 0.924 | 0.972
NCI-H3122 | 0.3 | 0.286 | 0.259 | 0.303 | 0.274 | 0.96 | 0.942 | 1.09 | 0.889 | 0.989 | 0.404 | 0.34 | 0.457 | 0.181 | 0.154 | 1.02 | 0.934 | 0.936 | 0.946
PC-3 [JPC-3] | 1.01 | 0.99 | 0.985 | 0.828 | 0.376 | 0.772 | 0.948 | 0.833 | 0.878 | 0.837 | 0.834 | 0.878 | 0.934 | 0.836 | 0.855 | 0.558 | 0.417 | 0.429 | 0.463
PC-14 | 0.939 | 0.934 | 0.9 | 0.326 | 0.0895 | 0.892 | 0.742 | 0.905 | 0.805 | 0.961 | 0.545 | 0.625 | 0.624 | 0.593 | 0.602 | 0.368 | 0.319 | 0.298 | 0.307
RERF-LC-KJ | 0.899 | 0.801 | 0.86 | 0.78 | 0.359 | 1.02 | 0.951 | 1.1 | 1 | 1.09 | 0.455 | 0.516 | 0.49 | 0.477 | 0.527 | 0.872 | 0.831 | 0.971 | 0.872
SK-LU-1 | 0.885 | 1.02 | 0.807 | 0.575 | 0.152 | 1.19 | 1.13 | 1.46 | 0.794 | 1.3 | 0.287 | 0.373 | 0.328 | 0.334 | 0.27 | 1.2 | 0.803 | 0.83 | 0.683
SW 1573 | 0.887 | 0.864 | 0.793 | 0.261 | 0.0628 | – | 1.04 | 1.04 | 1.19 | 0.836 | 0.178 | 0.216 | 0.188 | 0.198 | 0.162 | 1.16 | 1 | 1 | 0.689
UMC-11 | 0.613 | 0.627 | 0.627 | 0.554 | 0.1 | 0.615 | 0.989 | 0.695 | 0.199 | 0.9 | 0.185 | 0.184 | 0.192 | – | 0.208 | 1.08 | 0.928 | 0.643 | 0.365
